Laboratory results published in patent US9624170B2, “4-(piperrazin-1-yl)-pyrrolidin-2-one compounds as monoacylglycerol lipase (MAGL) inhibitors” (TAKEDA PHARMACEUTICAL COMPANY LIMITED, priority 2013, dated 2017).

Molecular target: T1, human MAGL (His-hMAGL) (Homo sapiens, UniProt Q99685)
T1 construct: made in house; host or cells: Escherichia coli BL21(DE3)
T1 sequence (Q99685 1-303): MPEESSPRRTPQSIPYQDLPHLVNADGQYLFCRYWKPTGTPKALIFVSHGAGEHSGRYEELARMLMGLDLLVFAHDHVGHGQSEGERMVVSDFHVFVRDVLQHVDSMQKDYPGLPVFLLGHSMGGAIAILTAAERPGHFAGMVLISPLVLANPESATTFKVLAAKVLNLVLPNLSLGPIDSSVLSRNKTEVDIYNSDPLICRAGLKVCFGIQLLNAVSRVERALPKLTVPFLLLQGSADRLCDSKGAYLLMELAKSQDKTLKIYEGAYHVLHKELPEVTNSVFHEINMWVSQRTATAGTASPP
Assay: Measurement of MAGL inhibitory activity by mass spectrometry
Format: biochemical
Settings: MAGL inhibitory rate, test compound 10 μM, His-hMAGL, substrate 2-arachidonylglycerol, RapidFire-mass spectrometry
Summary of the method: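 His-tagged human MAGL was reacted with 150 μM 2-arachidonylglycerol substrate (stock, added by 5 μL) for 10 min at room temperature, then stopped with formic acid. Arachidonic acid product was quantified by RapidFire–triple-quadrupole MS in negative SRM mode, corrected by arachidonic acid-d8, and converted to percent inhibition.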

Structure (SMILES)	inhibition at 10 µM [%]
O=C(c1nccs1)N1CCN(C2CC(=O)N(c3ccc(-c4cccnc4)cc3)C2)CC1 (centres unmarked) [Example 197, 1-(4-(pyridin-3-yl)phenyl)-4-(4-(1,3-thiazol-2-ylcarbonyl)piperazin-1-yl)pyrrolidin-2-one]	89
O=C(c1nccs1)N1CCN(C2CC(=O)N(c3cccc(-c4cccnc4Cl)c3)C2)CC1 (centres unmarked) [Example 199, 1-(3-(2-chloropyridin-3-yl)phenyl)-4-(4-(1,3-thiazol-2-ylcarbonyl)piperazin-1-yl)pyrrolidin-2-one]	101
O=C1Cc2ccc(-c3cccc(N4CC(N5CCN(C(=O)c6nccs6)CC5)CC4=O)c3)cc2N1 (centres unmarked) [Example 200, 6-(3-(2-oxo-4-(4-(1,3-thiazol-2-ylcarbonyl)piperazin-1-yl)pyrrolidin-1-yl)phenyl)-1,3-dihydro-2H-indol-2-one]	98
O=C(c1nccs1)N1CCN(C2CC(=O)N(c3ccnc(-c4ccccc4)c3)C2)CC1 (centres unmarked) [Example 201, 1-(2-phenylpyridin-4-yl)-4-(4-(1,3-thiazol-2-ylcarbonyl)piperazin-1-yl)pyrrolidin-2-one]	84
Cc1ccncc1-c1cccc(N2CC(N3CCN(C(=O)c4nccs4)CC3)CC2=O)c1 (centres unmarked) [Example 202, 1-(3-(4-methylpyridin-3-yl)phenyl)-4-(4-(1,3-thiazol-2-ylcarbonyl)piperazin-1-yl)pyrrolidin-2-one]	102
Cc1cnccc1-c1cccc(N2CC(N3CCN(C(=O)c4nccs4)CC3)CC2=O)c1 (centres unmarked) [Example 203, 1-(3-(3-methylpyridin-4-yl)phenyl)-4-(4-(1,3-thiazol-2-ylcarbonyl)piperazin-1-yl)pyrrolidin-2-one]	99
Cc1cc(-c2cccc(N3CC(N4CCN(C(=O)c5nccs5)CC4)CC3=O)c2)ccn1 (centres unmarked) [Example 204, 1-(3-(2-methylpyridin-4-yl)phenyl)-4-(4-(1,3-thiazol-2-ylcarbonyl)piperazin-1-yl)pyrrolidin-2-one]	101
O=C(c1nccs1)N1CCN([C@@H]2CC(=O)N(c3ccc4c(cnn4-c4ccc(F)cc4)c3)C2)CC1 [Example 205, (4R)-1-(1-(4-fluorophenyl)-1H-indazol-5-yl)-4-(4-(1,3-thiazol-2-ylcarbonyl)piperazin-1-yl)pyrrolidin-2-one]	100
Cc1cncc(-c2cccc(N3CC(N4CCN(C(=O)c5nccs5)CC4)CC3=O)c2)c1 (centres unmarked) [Example 206, 1-(3-(5-methylpyridin-3-yl)phenyl)-4-(4-(1,3-thiazol-2-ylcarbonyl)piperazin-1-yl)pyrrolidin-2-one]	98
O=C(c1nccs1)N1CCN(C2CC(=O)N(c3ccc(-c4ccco4)cc3)C2)CC1 (centres unmarked) [Example 207, 1-(4-(2-furyl)phenyl)-4-(4-(1,3-thiazol-2-ylcarbonyl)piperazin-1-yl)pyrrolidin-2-one]	97
Cc1cccc(-c2ccc(N3CC(N4CCN(C(=O)c5nccs5)CC4)CC3=O)cc2)c1 (centres unmarked) [Example 208]	101
N#Cc1ccccc1-c1ccc(N2CC(N3CCN(C(=O)c4nccs4)CC3)CC2=O)cc1 (centres unmarked) [Example 209, 4′-(2-oxo-4-(4-(1,3-thiazol-2-ylcarbonyl)piperazin-1-yl)pyrrolidin-1-yl)biphenyl-2-carbonitrile]	96
N#Cc1ccc(-c2ccc(N3CC(N4CCN(C(=O)c5nccs5)CC4)CC3=O)cc2)cc1 (centres unmarked) [Example 210, 4′-(2-oxo-4-(4-(1,3-thiazol-2-ylcarbonyl)piperazin-1-yl)pyrrolidin-1-yl)biphenyl-4-carbonitrile]	91
O=C(c1nccs1)N1CCN(C2CC(=O)N(c3ccc(-c4cnn5ccccc45)cc3)C2)CC1 (centres unmarked) [Example 212, 1-(4-(pyrazolo[1,5-a]pyridin-3-yl)phenyl)-4-(4-(1,3-thiazol-2-ylcarbonyl)piperazin-1-yl)pyrrolidin-2-one]	100
O=C(c1nccs1)N1CCN(C2CC(=O)N(c3ccc(-c4ccccc4)cc3)C2)CC1 (centres unmarked) [Example 213, 1-(biphenyl-4-yl)-4-(4-(1,3-thiazol-2-ylcarbonyl)piperazin-1-yl)pyrrolidin-2-one]	100
NC(=O)Cc1cccc(-c2ccc(N3CC(N4CCN(C(=O)c5nccs5)CC4)CC3=O)cc2)c1 (centres unmarked) [Example 214, 2-(4′-(2-oxo-4-(4-(1,3-thiazol-2-ylcarbonyl)piperazin-1-yl)pyrrolidin-1-yl)biphenyl-3-yl)acetamide]	93
O=C(c1nccs1)N1CCN(C2CC(=O)N(c3ccc(-c4ccccc4C(F)(F)F)cc3)C2)CC1 (centres unmarked) [Example 215, 4-(4-(1,3-thiazol-2-ylcarbonyl)piperazin-1-yl)-1-(2′-(trifluoromethyl)biphenyl-4-yl)pyrrolidin-2-one]	101
CS(=O)(=O)Nc1cccc(-c2ccc(N3CC(N4CCN(C(=O)c5nccs5)CC4)CC3=O)cc2)c1 (centres unmarked) [Example 216, N-(4′-(2-oxo-4-(4-(1,3-thiazol-2-ylcarbonyl)piperazin-1-yl)pyrrolidin-1-yl)biphenyl-3-yl)methanesulfonamide]	97
O=C(c1nccs1)N1CCN(C2CC(=O)N(c3ccc(-c4ccsc4)cc3)C2)CC1 (centres unmarked) [Example 217, 4-(4-(1,3-thiazol-2-ylcarbonyl)piperazin-1-yl)-1-(4-(3-thienyl)phenyl)pyrrolidin-2-one]	98
O=C(c1nccs1)N1CCN(C2CC(=O)N(c3ccc(-c4cccs4)cc3)C2)CC1 (centres unmarked) [Example 218, 4-(4-(1,3-thiazol-2-ylcarbonyl)piperazin-1-yl)-1-(4-(2-thienyl)phenyl)pyrrolidin-2-one]	99
Cc1ccc(-c2ccc(N3CC(N4CCN(C(=O)c5nccs5)CC4)CC3=O)cc2)cc1 (centres unmarked) [Example 219, 1-(4′-methylbiphenyl-4-yl)-4-(4-(1,3-thiazol-2-ylcarbonyl)piperazin-1-yl)pyrrolidin-2-one]	102
Cc1ccccc1-c1cccc(N2CC(N3CCN(C(=O)c4cscn4)CC3)CC2=O)c1 (centres unmarked) [Example 220, 1-(2′-methylbiphenyl-3-yl)-4-(4-(1,3-thiazol-4-ylcarbonyl)piperazin-1-yl)pyrrolidin-2-one]	103
Cc1ccccc1-c1cccc(N2CC(N3CCN(C(=O)c4ncco4)CC3)CC2=O)c1 (centres unmarked) [Example 221, 1-(2′-methylbiphenyl-3-yl)-4-(4-(1,3-oxazol-2-ylcarbonyl)piperazin-1-yl)pyrrolidin-2-one]	101
O=C1Cc2cccc(-c3cccc(N4CC(N5CCN(C(=O)c6nccs6)CC5)CC4=O)c3)c2N1 (centres unmarked) [Example 222, 7-(3-(2-oxo-4-(4-(1,3-thiazol-2-ylcarbonyl)piperazin-1-yl)pyrrolidin-1-yl)phenyl)-1,3-dihydro-2H-indol-2-one]	98
O=C(c1cscn1)N1CCN(C2CC(=O)N(c3cccc(-c4cccnc4Cl)c3)C2)CC1 (centres unmarked) [Example 223, 1-(3-(2-chloropyridin-3-yl)phenyl)-4-(4-(1,3-thiazol-4-ylcarbonyl)piperazin-1-yl)pyrrolidin-2-one]	101
O=C(c1ncco1)N1CCN(C2CC(=O)N(c3cccc(-c4cccnc4Cl)c3)C2)CC1 (centres unmarked) [Example 224, 1-(3-(2-chloropyridin-3-yl)phenyl)-4-(4-(1,3-oxazol-2-ylcarbonyl)piperazin-1-yl)pyrrolidin-2-one]	100
